# Laboratory results reported in publication PMC6216040, “Repurposing of an old drug: In vitro and in vivo efficacies of buparvaquone against Echinococcus multilocularis” (International Journal for Parasitology: Drugs and Drug …, 2018).
# Like-named read-outs stand apart in the source and are kept apart here.
# Tested on: E. multilocularis metacestodes
# Assay: PGI-assay: drug-induced damage on in vitro cultured metacestodes (Pathogen Box screening cascade and EC50)
# Type: cell-based, Echinococcus multilocularis
# Settings: for PGI release, % of the Tx-100 control, 5d / PGI release, % of the Tx-100 control, 12d / cytotoxicity at 10 µM: 10 µM, singlets; for cytotoxicity at 10 µM / PGI release, % of Tx-100 control at 10 µM: Echinococcus multilocularis
# [1] = confirmatory screening at 10 µM in triplicates, 5 days of incubation, values as % of Tx-100 control
# [2] = confirmatory screening at 10 µM in triplicates, 12 days of incubation, values as % of Tx-100 control
# [3] = 120 h, 5 days of incubation, read-out: PGI release, % of the Tx-100 control, 5d
# [4] = 288 h, 12 days of incubation, read-out: PGI release, % of the Tx-100 control, 12d
SMILES,"PGI release, % of the Tx-100 control, 5d (5 days of incubation)","PGI release, % of the Tx-100 control, 12d (12 days of incubation)",also measured
Cn1c(=O)c2c(S(C)(=O)=O)snc2n(C)c1=O [MMV687251],5.41%,6.23%,–
CCCCc1ccc(C(=O)Nc2nccc3ccccc23)nc1 [MMV687254],-0.76%,-1.68%,–
CC(C)=CCC/C(C)=C\CNCCNC1C2CC3CC(C2)CC1C3 (centres unmarked) [MMV687273],8.55%,5.83%,–
"CCc1nc2ccc(Cl)cn2c1C(=O)NCc1ccc(N2CCC(c3ccc(OC(F)(F)F)cc3)CC2)cc1 [MMV687696, Telacebec, Q203, reference compound]",-1.48%,7.51%,–
O=C(NCc1cc(Cl)cc(Cl)c1)c1c(C(F)(F)F)nc2ccccn12 [MMV687699],0.90%,18.76%,–
"Nc1ncnc2c1ncn2[C@@H]1O[C@H](COS(=O)(=O)NC(=O)c2ccccc2O)[C@@H](O)[C@H]1O [MMV687700, Salicyl-AMS, reference compound]",-0.78%,-1.38%,–
COc1cccc(-c2nc3c(N4CCCC4)cccc3n2CC2CCCN2)n1 (centres unmarked) [MMV687703],1.13%,-0.35%,–
c1ccc(Oc2ccc(-c3cc(N4CCNCC4)[nH]n3)cc2)cc1 [MMV687706],-0.18%,0.70%,–
O=C1O[C@@H](CO)CN1c1cc(F)c(C2=CCN(Cc3ccccc3)CC2)c(F)c1 [MMV687729],-0.40%,-0.63%,–
CCCCOC(=O)Nc1cc2[nH]c(C3CCCCC3)nc2cc1N1CCCC1 [MMV687730],5.43%,56.57%,"PGI release, % of Tx-100 control, average, 5d (1 µM, triplicates, 5 days of incubation): 3.65%; PGI release, % of Tx-100 control, average, 12d (1 µM, triplicates, 12 days of incubation): -3.14%; activity in the screen at 10 μM (confirmed in triplicates, >20% relative PGI release) (10 μM, 5 and 12 days): active; PGI release, % of Tx-100 control, average, 5d [1]: 22.60%; PGI release, % of Tx-100 control, average, 12d [2]: 45.66%"
Cc1cc(OCC(=O)NCc2ccccc2)c2cc(Br)ccc2n1 [MMV687747],-0.47%,1.30%,–
c1ccc(C[C@@H]2CN(c3nccc(Oc4ccc(-n5ccnc5)cc4)n3)CCN2)cc1 [MMV687749],5.87%,6.61%,–
c1ccc(Oc2ccc(-c3cc(C4CCOCC4)[nH]n3)cc2)cc1 [MMV687762],-1.81%,0.46%,–
Cc1cnc(N2CCN[C@@H](Cc3ccccc3)C2)nc1Oc1ccc(-n2ccnc2)cc1 [MMV687765],4.75%,6.17%,–
CC1(C)OB(O)c2ccc(C3=NOC(c4cc(Cl)c(F)c(Cl)c4)(C(F)(F)F)C3)cc21 (centres unmarked) [MMV687775],11.08%,-0.22%,–
Cc1cc(C2=NOC(c3cc(Cl)c(F)c(Cl)c3)(C(F)(F)F)C2)ccc1C(=O)NCc1ccc2c(c1)C(C)(C)OB2O (centres unmarked) [MMV687776],0.60%,2.49%,–
CC1(C)Cc2c(c(N3CCOCC3)nc3snc(Br)c23)CO1 [MMV687794],-0.77%,-1.36%,–
"NCC[C@H](O)C(=O)N[C@@H]1C[C@H](N)[C@@H](O[C@H]2O[C@H](CN)[C@@H](O)[C@H](O)[C@H]2O)[C@H](O)[C@H]1O[C@H]1O[C@H](CO)[C@@H](O)[C@H](N)[C@H]1O [MMV687796, Amikacin, reference compound]",–,–,cytotoxicity at 10 µM [3]: -1.34%; cytotoxicity at 10 µM [4]: -4.62%
"CC(C)/N=c1\cc2n(-c3ccc(Cl)cc3)c3ccccc3nc-2cc1Nc1ccc(Cl)cc1 [MMV687800, Clofazimine, reference compound]",–,–,"cytotoxicity at 10 µM [3]: 26.6%; PGI release, % of Tx-100 control at 10 µM (120 h, confirmatory screening at 10 µM in triplicates, 5 days of incubation, values as % of Tx-100 control, read-out: PGI release, % of Tx-100 control, average, 5d): -0.59%; cytotoxicity at 10 µM [4]: 65.6%; PGI release, % of Tx-100 control at 10 µM (288 h, confirmatory screening at 10 µM in triplicates, 12 days of incubation, values as % of Tx-100 control, read-out: PGI release, % of Tx-100 control, average, 12d): 3.89%"
"CC[C@@H](CO)NCCN[C@@H](CC)CO [MMV687801, Ethambutol, reference compound]",–,–,cytotoxicity at 10 µM [3]: -0.84%; cytotoxicity at 10 µM [4]: 0.29%
"CC(=O)NC[C@H]1CN(c2ccc(N3CCOCC3)c(F)c2)C(=O)O1 [MMV687803, Linezolid, reference compound]",–,–,cytotoxicity at 10 µM [3]: -0.58%; cytotoxicity at 10 µM [4]: 0.38%
CN1CCN(CCCOc2ncc(Nc3ncc(-c4ccc(C(F)(F)F)c(F)c4)nc3C(N)=O)cn2)CC1 [MMV687812],18.86%,22.66%,"PGI release, % of Tx-100 control, average, 5d [1]: 3.65%; PGI release, % of Tx-100 control, average, 12d [2]: 4.79%"
O=C1O[C@@H](COc2ccon2)CN1c1cc(F)c(C2=CCN(Cc3ccccc3)CC2)c(F)c1 [MMV687813],-0.66%,-1.17%,–
Cc1cccc(-c2nc(Nc3ccncn3)c3sccc3n2)n1 [MMV688122],0.14%,95.49%,"PGI release, % of Tx-100 control, average, 5d [1]: -0.80%; PGI release, % of Tx-100 control, average, 12d [2]: -0.86%"
